Publication PMC5415745, “Drug-transporter mediated interactions between anthelminthic and antiretroviral drugs across the Caco-2 cell monolayers” (BMC Pharmacology & Toxicology, 2017)
“And” between values parts separate entries of the source, which are not always exact repeats. Equal values may be shown once. “Also recorded” adds a separate entry of the source.

Experiments:
Caco-2 cell monolayers = assay: Bidirectional (AP→BL, BL→AP) drug transport across Caco-2 cell monolayers in transwells: cumulative transport, Papp, efflux ratio; HPLC or radiolabeled assay
Protocol: (§1) The monolayers used were of between passage 20 and 65 after 15 days of growth. Each experiment was performed in duplicate using two six well-transwell culture plates. The cells were trypsinized as described earlier, and after centrifugation the pellet re-suspended in fresh DMEM (+15%), and the cells counted using a cell counter. A volume of DMEM was added enough to give a cell count of 2 × 10^6 cells per ml, and cells were seeded on the transwell culture plates at a density of 2 × 10^4 cells/cm^2 (~ 100,000 cells per well, since insert membrane growth area = 4.67 cm^2). The plates were then incubated at 37°C and 10% CO2 in a humidified chamber and the media changed every 2-3 days, by aspirating using a suction pump and replacing with an equal volume of DMEM. Transport experiments were conducted 15 to 20 days after seeding. The TEER across the cell monolayers was monitored using a Millicell-ERS in order to assess cell monolayer integrity and the monolayers considered appropriate for the experiment when the TEER values were typically above 500 cm^2 [49, 70].
(§2) Prior to transport studies, each monolayer was washed and equilibrated with the transport medium (DMEM without FBS). The medium was removed from all AP and BL compartments of the transwells and replaced with 2 ml of the transport medium (DMEM alone), to both compartments and equilibrated for 1 h (37°C, 10% CO2 incubator), after which the TEER was re-assessed and labeled. The medium was then removed from both compartments and replaced with an equal volume of pre-warmed medium containing the compound of interest at the appropriate concentration. For the AP → BL transport, 2 ml of medium containing the desired drug was placed in the AP chamber and 2 ml of the medium alone in the BL chamber, whereas 2 ml of medium containing the drug was placed in the BL and 2 ml of medium on the AP chamber for the BL → AP transport [71]. The effect of the second drug was then assessed by adding the medium containing the original drug and the drug under study to the AP side for AP → BL transport with the medium containing the original drug alone in the BL chamber, and vice-versa for the BL → AP transport. Transport in each direction was done in triplicate. The transwell plates were then incubated (37°C, 10% CO2 incubator), and 100μl of the samples from the AP and BL compartments were taken at 60, 120, 180 and 240 min and quantified either by HPLC method described earlier [45], or by the use of a liquid scintillating counter depending on the drug under study. The HPLC method involved liquid - liquid extraction followed by ultra-high performance liquid chromatography using a Hypurity C18 column and ultraviolet detection set at a wavelength of 215 nm. The mobile phase consisted of ammonium formate, acetonitrile and methanol (57:38:5 v/v). Separation was facilitated via isocratic elution at a flow rate of 1.5 ml/min. For HPLC assays, the concentration used for each drug was 20μg/ml. The concentrations that offered the best detection were selected for radiolabeled assay. […] The integrity of the CCM during the experiment was monitored by measuring the TEER at the beginning (0 min) and the end of the experiment (240min).
(§3) The results were expressed as apparent permeability coefficient (Papp, unit: cms^-1), the amount of compound transported per second. Papp values were calculated for both AP to BL (PappAtoB), and BL to AP (PappBtoA) movement of the compound. Papp was calculated using the following equation [52, 72]: • Papp (cm/s) = (dQ/dt) x (1/(ACO) • dQ/dt = Steady-state flux (dpm s^-1 or μmol s^-1) • A = Surface area of the filter (cm^2) • CO = Initial concentration in the donor chamber (dpm litre ^-1 or μM)
(§4) The quotient of secretory permeability and absorptive permeability (PappBL-AP/PappAP-BL) constitutes the efflux ratio, while the reverse (PappAP-BL/PappBL-AP) is the uptake ratio [71].

[1] = as above; details: human
Protocol: as §1, §2, §3, §4

[2] = 120 min, individual samples 1-3
[3] = 180 min, individual samples 1-3
[4] = 240 min, individual samples 1-3
[5] = IVM alone (SQV experiment), 60 min, mean
[6] = IVM alone (SQV experiment), 120 min, mean
[7] = IVM alone (SQV experiment), 120 min, samples 1-3
[8] = IVM alone (SQV experiment), 180 min, mean
[9] = IVM alone (SQV experiment), 180 min, samples 1-3
[10] = IVM alone (SQV experiment), 240 min, mean
[11] = IVM alone (SQV experiment), 240 min, samples 1-3
[12] = IVM alone (SQV experiment), after 60min, individual samples
[13] = IVM alone (SQV experiment), after 60min, mean
[14] = IVM alone, 60 min, individual experiments 1-3
[15] = IVM alone, 120 min, individual experiments 1-3
[16] = IVM alone, 180 min, individual experiments 1-3
[17] = IVM alone, 240 min, individual experiments 1-3
[18] = [3H] IVM alone, 60 min, individual experiments 1-3
[19] = [3H] IVM alone, 60 min, mean, n=3
[20] = [3H] IVM alone, 120 min, individual experiments 1-3
[21] = [3H] IVM alone, 120 min, mean, n=3
[22] = [3H] IVM alone, 180 min, individual experiments 1-3
[23] = [3H] IVM alone, 180 min, mean, n=3
[24] = [3H] IVM alone, 240 min, individual experiments 1-3
[25] = [3H] IVM alone, 240 min, mean, n=3
[26] = [3H] IVM alone, after 60 min, mean, n=3
[27] = [3H] IVM alone, after 60 min, samples 1-3
[28] = labelled drug is the interacting drug
[29] = samples after 60min, individual samples 1-3, IVM alone
[30] = samples after 60min, mean n=3, IVM alone
[31] = mean (n=3) after 60 min, drug A alone, or label 'A + B' = transport of A in presence of interacting drug B, concentrations per Table 1
[32] = samples after 60min, individual samples 1-3

CC[C@H](C)[C@H]1O[C@]2(CC[C@@H]1C)C[C@@H]1C[C@@H](C/C=C(\C)[C@@H](O[C@H]3C[C@H](OC)[C@@H](O[C@H]4C[C@H](OC)[C@@H](O)[C@H](C)O4)[C@H](C)O3)[C@@H](C)/C=C/C=C3\CO[C@@H]4[C@H](O)C(C)=C[C@@H](C(=O)O1)[C@]34O)O2 [IVM, ivermectin]
Apical to basal transport (cumulative, receiver) (Caco-2 cell monolayers; 60 min, individual samples 1-3): 0.57 pmol and 0.44 pmol and 1.00 pmol
Basal to apical transport (cumulative, receiver) (Caco-2 cell monolayers; 60 min, individual samples 1-3): 0.65 pmol and 0.55 pmol and 0.96 pmol
Apical to basal transport (cumulative, receiver), Mean (Caco-2 cell monolayers; 60 min, mean n=3): 0.67 pmol
Basal to apical transport (cumulative, receiver), Mean (Caco-2 cell monolayers; 60 min, mean n=3): 0.72 pmol
Apical to basal transport (cumulative, receiver) (Caco-2 cell monolayers; [2]): 0.50 pmol and 0.61 pmol and 1.00 pmol
Basal to apical transport (cumulative, receiver) (Caco-2 cell monolayers; [2]): 1.34 pmol and 1.05 pmol and 1.67 pmol
Apical to basal transport (cumulative, receiver), Mean (Caco-2 cell monolayers; 120 min, mean n=3): 0.71 pmol
Apical to basal transport (cumulative, receiver) (Caco-2 cell monolayers; [3]): 0.66 pmol and 0.77 pmol and 1.54 pmol
Basal to apical transport (cumulative, receiver) (Caco-2 cell monolayers; [3]): 1.45 pmol and 1.96 pmol
Apical to basal transport (cumulative, receiver), Mean (Caco-2 cell monolayers; 180 min, mean n=3): 0.99 pmol
Basal to apical transport (cumulative, receiver), Mean (Caco-2 cell monolayers; 180 min, mean n=3): 1.63 pmol
Apical to basal transport (cumulative, receiver) (Caco-2 cell monolayers; [4]): 0.96 pmol and 0.81 pmol and 1.30 pmol
Basal to apical transport (cumulative, receiver) (Caco-2 cell monolayers; [4]): 2.52 pmol and 1.59 pmol and 2.27 pmol
Apical to basal transport (cumulative, receiver), Mean (Caco-2 cell monolayers; 240 min, mean n=3): 1.03 pmol
Basal to apical transport (cumulative, receiver), Mean (Caco-2 cell monolayers; 240 min, mean n=3): 2.13 pmol
Apical to basal transport Mean (Caco-2 cell monolayers; [5]): 11.45 fmol
Basal to apical transport Mean (Caco-2 cell monolayers; [5]): 11.69 fmol
Basal to apical transport (Caco-2 cell monolayers; IVM alone (SQV experiment), 60 min, samples 1-3): 12.29 fmol and 9.26 fmol
Apical to basal transport Mean (Caco-2 cell monolayers; [6]): 15.92 fmol
Basal to apical transport Mean (Caco-2 cell monolayers; [6]): 17.90 fmol
Apical to basal transport (Caco-2 cell monolayers; [7]): 14.08 fmol and 21.31 fmol and 12.37 fmol
Basal to apical transport (Caco-2 cell monolayers; [7]): 21.06 fmol and 15.84 fmol and 16.78 fmol
Apical to basal transport Mean (Caco-2 cell monolayers; [8]): 20.75 fmol
Basal to apical transport Mean (Caco-2 cell monolayers; [8]): 25.75 fmol
Apical to basal transport (Caco-2 cell monolayers; [9]): 23.29 fmol and 18.34 fmol and 20.63 fmol
Basal to apical transport (Caco-2 cell monolayers; [9]): 26.26 fmol
Apical to basal transport Mean (Caco-2 cell monolayers; [10]): 25.60 fmol
Basal to apical transport Mean (Caco-2 cell monolayers; [10]): 35.30 fmol
Apical to basal transport (Caco-2 cell monolayers; [11]): 21.18 fmol and 30.03 fmol and 25.60 fmol
Basal to apical transport (Caco-2 cell monolayers; [11]): 45.23 fmol and 24.14 fmol and 36.53 fmol
Apical to basal transport Conc. Basal (Caco-2 cell monolayers; [12]): 15.84 fmol and 11.06 fmol and 7.45 fmol
Basal to apical transport Conc. Apical (Caco-2 cell monolayers; [12]): 13.53 fmol
PappAB (Caco-2 cell monolayers; [12]): 10.74 10^6 cm/s and 7.18 10^6 cm/s and 4.31 10^6 cm/s
PappBA (Caco-2 cell monolayers; [12]): 7.36 10^6 cm/s and 5.84 10^6 cm/s and 4.54 10^6 cm/s
PappAB Mean (Caco-2 cell monolayers; [13]): 7.41 10^6 cm/s
PappBA Mean (Caco-2 cell monolayers; [13]): 5.92 10^6 cm/s
Apical to basal transport (Caco-2 cell monolayers; [14]): 8300 fmol and 7460 fmol and 8350 fmol
Basal to apical transport (Caco-2 cell monolayers; [14]): 15750 fmol and 21160 fmol
Apical to basal transport Mean (Caco-2 cell monolayers; IVM alone, 60 min, mean, n=3): 8040 fmol
Basal to apical transport Mean (Caco-2 cell monolayers; IVM alone, 60 min, mean, n=3): 17700 fmol
Apical to basal transport (Caco-2 cell monolayers; [15]): 17040 fmol and 10980 fmol and 9220 fmol
Basal to apical transport (Caco-2 cell monolayers; [15]): 21400 fmol and 27210 fmol and 31370 fmol
Apical to basal transport Mean (Caco-2 cell monolayers; IVM alone, 120 min, mean, n=3): 12410 fmol
Basal to apical transport Mean (Caco-2 cell monolayers; IVM alone, 120 min, mean, n=3): 26660 fmol
Apical to basal transport (Caco-2 cell monolayers; [16]): 20270 fmol and 13190 fmol and 16360 fmol
Basal to apical transport (Caco-2 cell monolayers; [16]): 26810 fmol and 40700 fmol
Apical to basal transport Mean (Caco-2 cell monolayers; IVM alone, 180 min, mean, n=3): 16610 fmol
Basal to apical transport Mean (Caco-2 cell monolayers; IVM alone, 180 min, mean, n=3): 31010 fmol
Apical to basal transport (Caco-2 cell monolayers; [17]): 16260 fmol and 22170 fmol and 13750 fmol
Basal to apical transport (Caco-2 cell monolayers; [17]): 35200 fmol and 45800 fmol
Apical to basal transport Mean (Caco-2 cell monolayers; IVM alone, 240 min, mean, n=3): 17390 fmol
Basal to apical transport Mean (Caco-2 cell monolayers; IVM alone, 240 min, mean, n=3): 37700 fmol
Apical to basal transport (Caco-2 cell monolayers; [18]): 14.35 fmol and 14.86 fmol and 15.44 fmol
Basal to apical transport (Caco-2 cell monolayers; [18]): 12.86 fmol and 12.68 fmol
Apical to basal transport Mean (Caco-2 cell monolayers; [19]): 14.88 fmol
Basal to apical transport Mean (Caco-2 cell monolayers; [19]): 13.03 fmol
Apical to basal transport (Caco-2 cell monolayers; [20]): 20.80 fmol and 20.34 fmol and 21.75 fmol
Basal to apical transport (Caco-2 cell monolayers; [20]): 17.34 fmol and 18.56 fmol and 18.52 fmol
Apical to basal transport Mean (Caco-2 cell monolayers; [21]): 20.96 fmol
Basal to apical transport Mean (Caco-2 cell monolayers; [21]): 18.14 fmol
Apical to basal transport (Caco-2 cell monolayers; [22]): 25.72 fmol and 23.95 fmol and 25.43 fmol
Basal to apical transport (Caco-2 cell monolayers; [22]): 17.07 fmol and 23.80 fmol and 31.79 fmol
Apical to basal transport Mean (Caco-2 cell monolayers; [23]): 25.03 fmol
Basal to apical transport Mean (Caco-2 cell monolayers; [23]): 24.22 fmol
Apical to basal transport (Caco-2 cell monolayers; [24]): 25.16 fmol and 26.38 fmol and 23.06 fmol
Basal to apical transport (Caco-2 cell monolayers; [24]): 22.70 fmol and 28.67 fmol and 34.20 fmol
Apical to basal transport Mean (Caco-2 cell monolayers; [25]): 24.86 fmol
Basal to apical transport Mean (Caco-2 cell monolayers; [25]): 28.52 fmol
PappAB Mean (Caco-2 cell monolayers; [26]): 14.06 10^6 cm/s
PappBA Mean (Caco-2 cell monolayers; [26]): 11.32 10^6 cm/s
Apical to basal transport Conc. Apical (Caco-2 cell monolayers; [27]): 101.63 fmol and 106.60 fmol and 109.59 fmol
Basal to apical transport Conc. Apical (Caco-2 cell monolayers; [27]): 13.56 fmol
Basal to apical transport Conc. Basal (Caco-2 cell monolayers; [27]): 110.67 fmol and 126.53 fmol and 111.99 fmol
PappAB Papp (Caco-2 cell monolayers; [27]): 16.8 ×10⁻⁶ cm/s and 13.7 ×10⁻⁶ cm/s and 11.7 ×10⁻⁶ cm/s
PappBA Papp (Caco-2 cell monolayers; [27]): 14.6 ×10⁻⁶ cm/s and 9.96 ×10⁻⁶ cm/s and 9.43 ×10⁻⁶ cm/s
Effect on the (efflux) transport of SQV (Caco-2 cell monolayers; [28]): significantly inhibited
Effect on the efflux of EFV (Caco-2 cell monolayers; [28]): increased; also recorded: marginally significant increase
Effect on the efflux transport of LPV (Caco-2 cell monolayers; [28]): significantly inhibited; also recorded: eightfold inhibition
Effect on the transport of NVP (Caco-2 cell monolayers; [28]): did not appear to significantly influence
PappAB Papp (Caco-2 cell monolayers; [29]): 7.59 10^9 cm/s and 4.95 10^9 cm/s and 10.26 10^9 cm/s
PappBA Papp (Caco-2 cell monolayers; [29]): 10.18 10^9 cm/s and 5.89 10^9 cm/s and 10.76 10^9 cm/s
PappAB Mean (Caco-2 cell monolayers; [30]): 7.60 10^9 cm/s
PappBA Mean (Caco-2 cell monolayers; [30]): 8.94 10^9 cm/s

O=C1Nc2ccc(Cl)cc2[C@@](C#CC2CC2)(C(F)(F)F)O1 [EFV, efavirenz]
Papp A→B at 60 min ([1]; Caco-2, Papp AP → BL, mean (n=3) after 60 min, drug A alone, or label 'A + B' = transport of A in presence of interacting drug B, concentrations per Table 1): 16.5 ×10⁻⁶ cm/s
Papp B→A at 60 min ([1]; Caco-2, Papp BL → AP, mean (n=3) after 60 min, drug A alone, or label 'A + B' = transport of A in presence of interacting drug B, concentrations per Table 1): 10.8 ×10⁻⁶ cm/s
Papp A→B at 60 min ([1]; Caco-2, PappAB, Papp, samples after 60min, individual samples 1-3): 20 ×10⁻⁶ cm/s
Papp B→A at 60 min ([1]; Caco-2, PappBA, Papp, samples after 60min, individual samples 1-3): 13.4 ×10⁻⁶ cm/s
Apical to basal transport (cumulative, receiver) (Caco-2 cell monolayers; 60 min, individual samples 1-3): 0.31 pmoles (2×) and 0.32 pmoles
Basal to apical transport (cumulative, receiver) (Caco-2 cell monolayers; 60 min, individual samples 1-3): 0.30 pmoles (2×) and 0.25 pmoles
Apical to basal transport (cumulative, receiver), Mean (Caco-2 cell monolayers; 60 min, mean n=3): 0.32 pmol
Basal to apical transport (cumulative, receiver), Mean (Caco-2 cell monolayers; 60 min, mean n=3): 0.28 pmol
Apical to basal transport (cumulative, receiver) (Caco-2 cell monolayers; [2]): 0.61 pmol and 0.54 pmol and 0.55 pmol
Basal to apical transport (cumulative, receiver) (Caco-2 cell monolayers; [2]): 0.53 pmol and 0.50 pmol and 0.57 pmol
Apical to basal transport (cumulative, receiver), Mean (Caco-2 cell monolayers; 120 min, mean n=3): 0.56 pmol
Basal to apical transport (cumulative, receiver), Mean (Caco-2 cell monolayers; 120 min, mean n=3): 0.53 pmol
Apical to basal transport (cumulative, receiver) (Caco-2 cell monolayers; [3]): 0.67 pmol and 0.70 pmol and 0.71 pmol
Basal to apical transport (cumulative, receiver) (Caco-2 cell monolayers; [3]): 0.69 pmol and 0.65 pmol and 0.70 pmol
Apical to basal transport (cumulative, receiver), Mean (Caco-2 cell monolayers; 180 min, mean n=3): 0.69 pmol
Basal to apical transport (cumulative, receiver), Mean (Caco-2 cell monolayers; 180 min, mean n=3): 0.68 pmol
Apical to basal transport (cumulative, receiver) (Caco-2 cell monolayers; [4]): 0.78 pmol and 0.86 pmol and 0.82 pmol
Basal to apical transport (cumulative, receiver) (Caco-2 cell monolayers; [4]): 0.86 pmol and 0.78 pmol and 0.84 pmol
Apical to basal transport (cumulative, receiver), Mean (Caco-2 cell monolayers; 240 min, mean n=3): 0.82 pmol
Basal to apical transport (cumulative, receiver), Mean (Caco-2 cell monolayers; 240 min, mean n=3): 0.83 pmol
Effect on the transport of PZQ (Caco-2 cell monolayers; [28]): did not affect
Papp AP → BL (Caco-2 cell monolayers; [31]): 16.5 ×10⁻⁶ cm/s
Papp BL → AP (Caco-2 cell monolayers; [31]): 10.8 ×10⁻⁶ cm/s
PappAB Papp (Caco-2 cell monolayers; [32]): 15.9 ×10⁻⁶ cm/s and 13.5 ×10⁻⁶ cm/s
PappBA Papp (Caco-2 cell monolayers; [32]): 9.29 ×10⁻⁶ cm/s and 9.67 ×10⁻⁶ cm/s
